# Test results published in patent US12551478B2, “Quinoline derivative having indoleamine-2,3-dioxygenase inhibitory activity” (SHENZHEN CHIPSCREEN BIOSCIENCES CO., LTD., priority 2018, dated 2026).
# Several values for one entry are separate records, joined by “and”; a condition that tells them apart may be missing. Equal values may be shown once.
# Assays:
# [1] = target: T1, IDO in HeLa cell (Homo sapiens, UniProt P14902); test: Inhibition of IDO enzyme activity in HeLa cells by Chidamide in combination with IDO inhibitor; assay type: cell-based; details: IFN-γ, 48 hours
# T1 construct: 50 ng/ml cytokine human IFN-γ and drugs with different concentrations; endogenous in cells; host or cells: HeLa cells stimulated with human IFN-γ
# T1 sequence (P14902 whole entry): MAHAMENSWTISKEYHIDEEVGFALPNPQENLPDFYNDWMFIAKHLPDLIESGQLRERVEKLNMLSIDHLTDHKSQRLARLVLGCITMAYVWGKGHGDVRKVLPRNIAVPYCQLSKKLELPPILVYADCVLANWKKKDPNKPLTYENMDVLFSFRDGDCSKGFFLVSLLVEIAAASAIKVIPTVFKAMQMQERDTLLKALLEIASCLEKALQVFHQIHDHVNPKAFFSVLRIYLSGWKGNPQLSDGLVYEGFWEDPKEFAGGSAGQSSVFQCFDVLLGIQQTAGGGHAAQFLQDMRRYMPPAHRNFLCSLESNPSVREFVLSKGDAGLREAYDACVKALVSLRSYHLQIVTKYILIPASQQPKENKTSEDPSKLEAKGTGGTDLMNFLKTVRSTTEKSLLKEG
# Description: HeLa cells were digested by trypsin, collected and counted, then inoculated in a 96-well cell culture plate at 2×10^4 cells per well and cultured at 5% CO2 and 37° C. After the cells were inoculated overnight, the medium was replaced with 200 μM L-tryptophan phenol red-free DMEM medium, and 50 ng/ml cytokine human IFN-γ and drugs with different concentrations (administered according to the group and final concentration shown in FIG. 1) were added simultaneously, the vehicle control (DMSO) and cytokine-free and L-tryptophan negative control wells were set at the same time, and triplicate wells were set. After 48 hours of drug treatment, 200 μL of the supernatant from culture well was pipetted out, added with 40 μL of pre-prepared 30% (w/v) trichloroacetic acid solution, reacted at 65° C. for 20 minutes, and then centrifuged at 12000 rpm for 15 minutes. 100 μL of the supernatant was pipetted out and added into a 96-well flat bottom plate, then equal volume of 2% p-dimethylaminobenzaldehyde in glacial acetic acid was added and mixed well, and stood at room temperature for 10 minutes. The absorbance value of each well at wavelength of 492 nm was read with microplate reader (ELX800NB). After subtracting the cell-free medium OD492-BLK as a blank control from the reading of each well, the OD492-T of each dosing well with subtraction of the detection background and the […] of drug-free positive control well were obtained.
# The relative enzyme activity inhibition rate against IDO of each dosing well cell was calculated according to the following formula: enzyme activity inhibition rate against IDO=(OD492−T0−OD492−T)/OD492−T0×100%
# [2] = system: CT-26 tumor; test: Efficacy experiment on Balb/c mouse CT-26 tumor model; assay type: in vivo; details: for average tumor weight: Example 93, FIG. 6: tumors stripped after last administration on 17th day, vehicle group 2.7 g; for Relative tumor inhibition rate (%): Example 93: Chidamide 25 mg/kg, Example 3 20 mg/kg, intragastric once per day, 17 days, tumor volume vs vehicle control
# Description: CT-26 cells were subjected to multiplication culture and kept in a logarithmic growth state. After the number of cells met the requirement, the cells were digested with trypsin and collected, washed sufficiently with a large amount of PBS twice to remove trypsin and serum components, centrifuged at room temperature and 800 rpm for 10 minutes, and the supernatant was discarded. The cells were resuspended in FBS-free DMEM medium and adjusted to reach a cell concentration of 3×10^7/mL.
# Under aseptic condition, the cell suspension was injected into subcutaneous of back of […] at a dose of 100 μL/needle, one injection per Balb/c mouse. During the injection, 1 mL disposable medical syringe was used to ensure that the position and direction for inserting needle to each mouse was basically the same.
# Eight days after cell inoculation, the tumor grew to an average volume of about 100 mm^3. The tumor-bearing mice were randomly divided into four groups (9 mice in each group), namely the vehicle control group, the chidamide group (25 mg/kg, intragastric administration, once per day), Example 3 group (20 mg/kg, intragastric administration, once per day), and the combination of Chidamide and Example 3 group, and then the mice were raised in cages after labeling, the mice was administered according to groups and observed for tumor formation every day. The body weight of each mouse was weighted before administration, and the dose was calculated according to per kilogram of body weight, that was, 10 μL of CMC-Na solution per gram of body weight for the vehicle control group, 10 μL of 2.5 mg/mL Chidamide-CMC-Na suspension per gram of body weight for the chidamide group (25 mg/kg), 10 μL of 2 mg/mL the compound of Example 3-CMC-Na suspension per gram of body weight for the Example 3 group (20 mg/kg), and 10 μL of CMC-Na suspension containing 2.5 mg/ml chidamide and 2 mg/ml the compound of Example 3 per gram of body weight for the combination group were administered intragastrically. The longest diameter of tumor (length) and the widest diameter (width) perpendicular thereto were measured by vernier caliper every 2 days, and the tumor volume was calculated by the formula TS=length×(width)^2/2 and recorded. Each mouse was intragastrically administered once per day at regular time; after the last administration on the 17th day, the mice were sacrificed and the tumors of tumor-bearing mice were stripped and weighed with […].
# The relative tumor inhibition rate of each administration group was calculated according to the following formula: Relative tumor inhibition rate=(average tumor volume of the vehicle control group−average tumor volume of the administration group)/average tumor volume of the vehicle control group×100%
# [3] = system: CT-26 tumor; test: as above; assay type: in vivo; details: method similar to Example 93
# [4] = target: T2, human indoleamine 2,3-dioxygenase 1 (hIDO1) (Homo sapiens, UniProt P14902); test: Inhibitory activity test at cellular level: IFN-γ-induced HeLa cells, kynurenine colour reaction; assay type: cell-based; details: 48 hours; for inhibition at 0.1 µM: 50 ng/ml human IFN-γ, 200 μM L-tryptophan, each test compound 100 nM, read-out: hIDO1-cell base inhibition rate (%); for EC50: human IFN-γ, read-out: hIDO1-cell base EC50
# T2 construct: up-regulate the expression of endogenous IDO1 under the induction of human IFN-γ; endogenous in cells; host or cells: HeLa cells stimulated with human IFN-γ
# T2 sequence (P14902 whole entry): as above
# Description: The subject of this assay was to comprehensively evaluate different compounds on their enzymatic inhibitory activity in vitro and on cell models against human indoleamine 2,3-dioxygenase 1 (hIDO1).
# In the present application, the inventors used Hela cells expressing IDO1 induced by IFN-γ as a model, to test the IDO1 inhibitory activity of the compounds at the cellular level.
# HeLa cells are human cervical cancer cell lines, which can up-regulate the expression of endogenous IDO1 under the induction of human IFN-γ. By adding the substrate L-tryptophan to cell culture medium, the enzymatic catalysis product kynurenine in cell supernatant was detected. In this experiment, the cultured Hela cells were used and co-incubated with different concentrations of test compounds under stimulation of human IFN-γ for a specified period of time, and the color reaction method of enzyme product and p-dimethylaminobenzaldehyde was used to detect the effect on IDO enzyme activity of cells treated by the test compounds.
# (1) Hela cells were inoculated into 96-well culture plates at an appropriate concentration (about 20,000 cells/well). […] The cells were continuously cultured for 48 hours before detection.
# (2) 200 μL of the supernatant in the culture well was pipetted out, added with 40 μL of the pre-prepared 30% (w/v) trichloroacetic acid solution, and reacted at 65° C. for 20 minutes, and then centrifuged at 12000 rpm for 15 minutes.
# (3) 100 μL of the supernatant after centrifugation was pipetted out, added into a 96-well flat bottom plate, then added with an equal volume of 2% p-dimethylaminobenzaldehyde in glacial acetic acid and mixed well, and stood at room temperature for 10 minutes.
# (4) microplate reader (ELX800NB) was used to detect the absorbance value of each well, and the detection wavelength was 492 nm.
# In addition, after the cell enzyme activity inhibition rates of test compounds with different concentration gradients were separately calculated, their cell enzyme activity half inhibition concentrations (EC50) were calculated by using EC50 calculator.
# According to the above-mentioned experimental method, the compounds of the present application were subjected to IDO1 enzymatic evaluation at cytological level (the concentration of each test compound was all 100 nM).
# According to the above-mentioned experimental method, the compound of the present application was subjected to hIDO1-cell base EC50 detection.
# [5] = Example 89, Table 3: chidamide and Example 3 alone and in combination, concentrations per FIG. 1
# [6] = Example 90, Table 4: chidamide and Example 20 alone and in combination, FIG. 2
# [7] = Example 91, Table 5: chidamide and Example 72 alone and in combination, FIG. 3
# [8] = Example 94, Table 8: chidamide and Example 20 alone and in combination
# [9] = Example 95, Table 9: chidamide and Example 72 alone and in combination
"Average inhibition rate (%) against IDO [1, 5] [%]","Average inhibition rate (%) against IDO [1, 6] [%]","Average inhibition rate (%) against IDO [1, 7] [%]","Average inhibition rate (%) against IDO ([1]; Example 92, Table 6: chidamide and Example 87 alone and in combination, FIG. 4) [%]",inhibition at 0.1 µM [4] [%],EC50 [4] [nM],SMILES,average tumor weight [2] [g],Relative tumor inhibition rate (%) [2],"Relative tumor inhibition rate (%) [3, 8] [%]","Relative tumor inhibition rate (%) [3, 9] [%]","Relative tumor inhibition rate (%) ([3]; Example 96, Table 10: chidamide and Example 87 alone and in combination)"
–,16,–,–,64,46,"O=C(Nc1ccc2c(c1)OCO2)N1CC2(CC(Oc3ccnc4ccc(F)cc34)C2)C1 [Example 20, N-(benzo[d][1,3]dioxol-5-yl)-6-((6-fluoroquinolin-4-yl)oxy)-2-aza-spiro[3.3]heptan-2-carboxamide]",–,–,8.3,–,–
–,–,36,–,88,8,"CC(C(=O)Nc1ccc(Cl)cc1)N1CC2C(C1)C2Nc1ccnc2ccc(F)cc12 (stereo not drawn) [Example 72, 2-(6-((6-fluoroquinolin-4-yl)amino)-3-aza-bicyclo[3.1.0]hexan-3-yl)-N-(4-chlorophenyl)propionamide]",–,–,–,7.6,–
–,–,–,–,49,–,"CC(C(=O)Nc1ccc(Cl)cc1)N1CC2C(COc3ccnc4ccc(F)cc34)C2C1 (stereo not drawn) [Example 46, N-(4-chlorophenyl)-2-(6-(((6-fluoroquinolin-4-yl)oxo)methyl)-3-aza-bicyclo[3.1.0]hexan-3-yl)propionamide]",–,–,–,–,–

# The next lines start with the compound.
SMILES,"Average inhibition rate (%) against IDO [1, 5] [%]","Average inhibition rate (%) against IDO [1, 6] [%]","Average inhibition rate (%) against IDO [1, 7] [%]","Average inhibition rate (%) against IDO ([1]; Example 92, Table 6: chidamide and Example 87 alone and in combination, FIG. 4) [%]",inhibition at 0.1 µM [4] [%],EC50 [4] [nM],average tumor weight [2] [g],Relative tumor inhibition rate (%) [2],"Relative tumor inhibition rate (%) [3, 8] [%]","Relative tumor inhibition rate (%) [3, 9] [%]","Relative tumor inhibition rate (%) ([3]; Example 96, Table 10: chidamide and Example 87 alone and in combination)"
"Nc1cc(F)ccc1NC(=O)c1ccc(CNC(=O)/C=C/c2cccnc2)cc1 [Chidamide, reference compound]",24,22,23,23,–,–,1.6,33% and 33.6%,30,25.4,55
"O=C(Nc1ccc(Cl)cc1)N1CC2(CC(Oc3ccnc4ccc(F)cc34)C2)C1 [Example 3, N-(4-chlorophenyl)-6-((6-fluoroquinolin-4-yl)oxy)-2-aza-spiro[3.3]heptan-2-carboxamide]",31,–,–,–,90,14,2.3,20% and 20.1%,–,–,–
"O=C(NCc1ccc(Cl)cc1)N1CC2(CC(Oc3ccnc4ccc(F)cc34)C2)C1 [Example 15, N-(4-chlorobenzyl)-6-((6-fluoroquinolin-4-yl)oxy)-2-aza-spiro[3.3]heptan-2-carboxamide]",–,–,–,–,18,–,–,–,–,–,–
